According to patent US10662204B2 (PFIZER INC., priority 2018, dated 2020):

Assays:
[1] = molecular target: T1, GDP-loaded KRAS (1-169) G12C, C51S, C80L, C118S (Homo sapiens, UniProt P01116, C118S/C51S/C80L/G12C); test: Mass Spectrometry Reactivity Assay (MSRA): covalent adduct of compound and KRAS G12C, Percent Modification; type: binding; details: for MSRA (% modification) 5.0 μM 0.25 hr / MSRA (% modification) 5.0 μM 0.017 hr: 5.0 μM compound
T1 construct: GDP-loaded KRAS (1-169) G12C, C51S, C80L, C118S
Procedure: Mass Spectrometry Reactivity Assay (MSRA)
Compounds presented in the present invention covalently bind to KRAS G12C using MSRA to detect a covalent adduct of the exemplary compound and KRAS G12C.
GDP-loaded KRAS (1-169) G12C, C51S, C80L, C118S were diluted in the protein assay buffer 25 mM Hepes pH7.5, 200 mM NaCl, 5% glycerol to concentration of 5 μM and 20 μl of protein was transferred into 96-well plate. Initial compound stocks were generated at concentrations 100-fold higher that their desired assay concentrations. See K-Ras(G12C) inhibitors allosterically control GTP affinity and effector interactions; Ostrem J M, Peters U, Sos M L, Wells J A, Shokat K M; Nature. 2013, Nov. 28; 503(7477):548-51.
Exemplary compounds dissolved in DMSO were diluted 100-fold into solution containing 20 μl of 5 μM KRAS protein in the 96-well plate to initiate the reaction. Mosquito (TPP Lab tech) liquid handling robot was used to add compounds to protein solution. Typical final concentration of the compounds was 5 μM or 10 μM. The plates were placed on a shaker for 1 min at RT, sealed and incubated at room temperature for specified time period. 5 μl of reaction mix was added to 10 μl of 0.2% formic acid stop solution and mixed well. Typical end points were 1, 15, 30, and 60 min.
Data were collected using Waters Acquity H-class UPLC system/Xevo G2-XS TOF mass spectrometer. The protein was injected in their liquid phase onto a Bruker Microtrap protein column TR1/15109/03. The following buffers were used to set LC gradient: Buffer A: 0.2% formic acid H2O; B: 0.2% formic acid CAN. The protein was eluted from the column using the following LC Gradient: 0-0.4 min, 10% B to 30% B; 0.4 min-2.4 min, to 90% B, 2.5 min, 10% B, 3 min, 10% B. Initial data analysis was performed using MaxEnt software right after data acquisition.
The standard auto processing function was used to define percentage of unmodified and modified KRAS protein using MexEnt software right after data acquisition. The highest peak was defined as 100% while smaller peak as assigned the number defined by autoprocessing function. The percent of modification corresponding to modified with exemplary compound and unmodified KRAS GDP-loaded KRAS (1-169) G12C, C51S, C80L, C118S were exported to Xcel data analysis software.
The percent of modified protein at the defined concentration of exemplary compound was calculated using the following formula: % mod=Num of modified peak/Sum of modified+unmodified. The resultant value defined as Percent Modification (PM) and an increase in PM reflects that the specific compound is better than other compounds at specified compound concentration at a given time point.

KRAS G12C = KRAS G12C (Homo sapiens, UniProt P01116, G12C); test: Cell Activity Assay: accumulation of GDP-bound KRAS G12C in MIAPaCa-2 cells (Raf-1 RBD capture, MSD readout); type: cell-based; parameters: endogenous in cells; host or cells: MIAPaCa-2; details: 6 hours, assay limit is 30.00
Procedure: Compounds presented in the present invention lead to the accumulation of the GDP bound Ras upon treatment of human cancer cell line.
The accumulation of the GDP-bound KRAS G12C in cellular environment was measured based on the principle that KRAS G12C only binds to its downstream kinase; Raf-1 (MAP Kinase Kinase Kinase), when in its active-GTP bound state. In this state, Ras binded to a domain of Raf-1 kinase referred to as the Ras Binding Domain (RBD).
MIAPaCa-2 cells were grown in RPMI 1640 medium (Gibco 11875) supplemented with 10% fetal bovine serum and 1% penicillin/streptomycin. Cells were seeded in 96-well tissue culture plates at a density of 30,000 cells/well and allowed to attach for 16-24 hours. Test compounds were prepared as a 10 mM stock in DMSO and serially diluted in 100% DMSO using a 3-fold dilution scheme. An intermediate 5× concentrated plate in complete growth medium was made and 25 μl/well was added to the 100 μl of cells for a final concentration of 0.3% DMSO. Each concentration of exemplary compound was tested in duplicate. The negative control wells were cells with control inhibitor at 10 μM, and the positive control wells were cells without drugs, DMSO only. Plates were incubated for 6 hours at 37° C., 5% CO2. Following treatment, cells were washed 3× with ice-cold PBS and 115 μl/well ice-cold 1× Assay/Lysis. Buffer with protease inhibitors was added (25 mM HEPES, pH 7.5, 150 mM NaCl, 1% NP-40, 10 mM MgCl2, 1 mM EDTA, 2% Glycerol). Following lysis samples were frozen at −80° C.
Raf-1 RBD (LJIC-1988A1) was diluted to 100 ng/well in PBS and 5 μl/well was spot coated onto MSD high bind SECTOR plates (L15XB). Plates were incubated at room temperature for 1 hour on an orbital shaker. Plates were washed with PBS/0.05% Tween-20 and 50 μl/well of thawed lysate samples were added, followed by 50 μl of 1% MSD Blocker A in PBS/0.05 Tween-20 (R93BA). Plates were incubated for 1 hour on an orbital shaker and washed with PBS/0.05% Tween-20. 25 μl/well of Anti-pan-Ras Antibody (Cell Biolabs 244003) diluted 1:3000 was added in 1% MSD Blocker A solution and plates were incubated for 1 hour on an orbital shaker and washed with PBS/0.05% Tween-20. SULFO-TAG goat anti-mouse secondary antibody (MSD R32AC) was diluted 1:500 in MSD Blocker A solution and added at 25 μL/well. Plates were incubated for 1 hour on an orbital shaker and washed with PBS/0.05% Tween-20. 150 μl/well of Read Buffer T (MSD R92TC) diluted 1:3 in H2O was added and plates were read on a Meso Scale Discovery Sector Imager S600.
KRAS signal was normalized to maximum inhibition and DMSO control values, and IC50 values were generated using a 4 parameter fit of the dose response curve. The decrease in IC50 reflects that the exemplary compound lead to a higher level of accumulation of GDP-bound KRAS G12C than another exemplary compounds at specific timepoint of treatment of cancer cell line.

Row | MSRA (% modification) 10 μM 0.25 hr ([1]; 10 μM compound, 0.25 hr) [%] | IC50 (KRAS G12C) [µM] | MSRA (% modification) 5.0 μM 0.25 hr ([1]; 0.25 hr) [%] | MSRA (% modification) 10 μM 0.50 hr ([1]; 10 μM compound) [%] | MSRA (% modification) 5.0 μM 0.017 hr [1] [%] | Structure (SMILES)
1 | 31 | 3.5 |  |  |  | C=CC(=O)N1CCN(c2ncnc3c(Oc4c(Cl)c(F)cc5[nH]ncc45)nc(N)cc23)CC1 [Example 41A, 1-(4-{6-amino-8-[(5-chloro-6-fluoro-1H-indazol-4-yl)oxy]pyrido[3,4-d]pyrimidin-4-yl}piperazin-1-yl)prop-2-en-1-one]
2 |  | 0.283 | 61 |  |  | C=CC(=O)N1CCN(c2nc(OCC3CCCCN3C)nc3c(Oc4c(C)ccc5[nH]ncc45)cccc23)CC1 (stereo not drawn) [Example 21F, 1-(4-{8-[(5-methyl-1H-indazol-4-yl)oxy]-2-[(1-methylpiperidin-2-yl)methoxy]quinazolin-4-yl}piperazin-1-yl)prop-2-en-1-one]
3 |  | > 30 |  | 19 |  | C=CC(=O)N1CCN(c2ncnc3c(Oc4cc(O)cc5ccccc45)nc(C)cc23)CC1 [Example 02, 1-(4-{8-[(3-Hydroxynaphthalen-1-yl)oxy]-6-methylpyrido[3,4-d]pyrimidin-4-yl}piperazin-1-yl)prop-2-en-1-one]
4 |  | 0.055 |  |  | 55 | C=CC(=O)N1CCN(c2nc(Oc3cccc4c3CCN(C)C4)nc3c(Oc4c(C)ccc5[nH]ncc45)nccc23)CC1 [Example 38I, 1-(4-{8-[(5-methyl-1H-indazol-4-yl)oxy]-2-[(2-methyl-1,2,3,4-tetrahydro-isoquinolin-5-yl)oxy]pyrido [3,4-d]pyrimidin-4-yl}piperazin-1-yl)prop-2-en-1-one]
5 |  | 13.3 |  | 30 |  | C=CC(=O)N1CCN(c2ncnc3c(Oc4c(C)c(Cl)cc5[nH]ncc45)nc(C#N)cc23)C[C@H]1C [Example 27A, 4-[(3R)-4-acryloyl-3-methylpiperazin-1-yl]-8-[(6-chloro-5-methyl-1H-indazol-4-yl)oxy]pyrido[3,4-d]pyrimidine-6-carbonitrile]
6 |  | 0.059 |  |  | 15 | C=CC(=O)N1CCN(c2nc(O[C@@H]3CN(C)CC[C@H]3C)nc3c(Oc4c(Cl)c(F)cc5[nH]ncc45)nccc23)CC1 (racemic) [Example 53I, rac-1-[4-(8-[(5-chloro-6-fluoro-1H-indazol-4-yl)oxy]-2-{[(3S,4R)-1,4-dimethyl-piperidin-3-yl]oxy}pyrido [3,4-d]pyrimidin-4-yl)piperazin-1-yl]prop-2-en-1-one]
7 |  | 0.004 | 84 |  | 83 | C=CC(=O)N1CCN(c2nc(O[C@@H]3CN(C)C[C@H]3OC)nc3c(Oc4c(Cl)c(F)cc5[nH]ncc45)nc(Cl)cc23)CC1 [Example 24G, 1-[4-(6-chloro-8-[(5-chloro-6-fluoro-1H-indazol-4-yl)oxy]-2-{[(3R,4R)-4-methoxy-1-methylpyrrolidin-3-yl]oxy}pyrido[3,4-d]pyrimidin-4-yl)piperazin-1-yl]prop-2-en-1-one]
8 |  | 0.155 |  |  | 24 | C=CC(=O)N1CCN(c2nc(O[C@@H]3CN(C)C[C@H]3OC)nc3c(Oc4c(Cl)c(F)cc5[nH]ncc45)nccc23)C[C@H]1C [Example 35I, 1-[(2R)-4-(8-[(5-chloro-6-fluoro-1H-indazol-4-yl)oxy]-2-{[(3R,4R)-4-methoxy-1-methyl-pyrrolidin-3-yl]oxy}pyrido [3,4-d]pyrimidin-4-yl)-2-methyl-piperazin-1-yl]prop-2-en-1-one]
9 |  |  |  |  | 7 | C=CC(=O)N1CCN(c2nc(Oc3cc4n(n3)CCN(C)C4)nc3c(Oc4c(Cl)c(F)cc5[nH]ncc45)nccc23)CC1 [Example 45I, 1-(4-{8-[(5-chloro-6-fluoro-1H-indazol-4-yl)oxy]-2-[(5-methyl-4,5,6,7-tetrahydro-pyrazolo [1,5-a]pyrazin-2-yl)oxy]pyrido [3,4-d]pyrimidin-4-yl}piperazin-1-yl)prop-2-en-1-one]
